Data as given in ChEMBL document CHEMBL4219041, “Improving oral bioavailability of cyclic peptides by N-methylation” (Bioorg Med Chem, 2018).
Square brackets hold non-standard residues; d marks the D form. Peptide text beside a SMILES is read from it. dNMeW = CN[C@H](Cc1c[nH]c2ccccc12)C(=O)O; NMeF = CN[C@@H](Cc1ccccc1)C(=O)O; NMeK = CN[C@@H](CCCCN)C(=O)O

How the values were obtained:
[1] = Efflux ratio of apparent permeability from basolateral to apical over apical to basolateral side in human Caco2 cells; format: ADME, cell-based; conditions: Caco-2
[2] = Oral bioavailability in rat at 10 mg/kg; format: ADME, organism-based; conditions: in vivo

Row | SMILES | efflux ratio [1] | bioavailability [2]
1 | C[C@@H](O)[C@@H]1NC(=O)[C@H](CCCCN)N(C)C(=O)[C@@H](Cc2c[nH]c3ccccc23)N(C)C(=O)[C@H](Cc2ccccc2)NC(=O)[C@@H]2CCCN2C(=O)[C@H](Cc2ccccc2)N(C)C1=O (cyclo(F[dNMeW][NMeK]T[NMeF]P)) |  | 10%
2 | C[C@@H]1NC(=O)[C@H](C)NC(=O)[C@@H](C)N(C)C(=O)[C@H](C)N(C)C(=O)[C@H](C)NC(=O)[C@H](C)NC1=O | 2.05 | 

Next, values leading:

Row | efflux ratio [1] | bioavailability [2] | SMILES
3 | 1.97 |  | C[C@@H]1NC(=O)[C@H](C)N(C)C(=O)[C@H](C)N(C)C(=O)[C@H](C)NC(=O)[C@H](C)N(C)C(=O)[C@@H](C)N(C)C1=O
4 | 1.93 |  | C[C@@H]1NC(=O)[C@H](C)NC(=O)[C@@H](C)N(C)C(=O)[C@H](C)NC(=O)[C@H](C)N(C)C(=O)[C@H](C)NC1=O
5 | 0.08 |  | C[C@@H]1NC(=O)[C@H](C)N(C)C(=O)[C@H](C)N(C)C(=O)[C@H](C)NC(=O)[C@@H](C)N(C)C(=O)[C@H](C)N(C)C1=O
